Data taken from US9862690B2, “Treatment of pulmonary and other conditions” (University of Pittsburgh—of the Commonwealth System of …, priority 2013, dated 2018).

Experiments:
Nrf2 = Nrf2 DNA-binding activity and nuclear concentration in BEAS-2B cells; format: cell-based; details: different concentrations, 24 h
Procedure: BEAS-2B cells were treated with varying concentrations of PB141 for 24 h, after which (A) Nrf2 activity was measured or (C) nuclear Nrf2 concentration was determined by Western blotting. (B) In other experiments cells were pretreated with varying concentrations of PB141 for 1 h, then with LPS (500 ng/ml) for 6 h. Cells were then isolated and activity of NF-κB was measured.
BEAS-2B cells were cultured in Dulbecco's modified Eagle's medium (DMEM) containing 10% heat-inactivated fetal bovine serum, penicillin, and streptomycin (100 IU/ml). Monolayer cultures were treated with different concentrations of PB141 for 24 h. Cells were then isolated and the DNA-binding activity of the antioxidant transcription factor Nrf2 was determined. The nuclear concentration of Nrf2 was also determined by Western blotting. […] In some experiments monolayer cultures were deprived of serum for 24 h, pre-treated with different concentrations of PB141 for 1 h, then exposed to LPS for 6 h. Nuclear proteins were prepared and were used to quantify DNA-binding activity of the p65 subunit of NF-κB.

[1] = test system: human lung adenocarcinoma cell lines (NCI-H661, NCI-H441 and NCIH1299); assay: Proliferation (BrdU) and apoptosis (TUNEL) of NNK-treated lung adenocarcinoma cells; format: cell-based; details: pretreated 1 to 5 μM, then 1 μM NNK; data not shown
Procedure: For further in vitro studies, human lung adenocarcinoma cell lines (NCI-H661, NCI-H441 and NCIH1299) were obtained from American Type Culture Collection. Cells were treated with 1 μM NNK for 1 hr. In some experiments cells were pretreated with 1 to 5 μM PB141 before treatment with NNK. Cell proliferation was assessed by BrdU proliferation kit (Roche Applied Science). Apoptosis was assessed by TUNEL assay.

[2] = test system: NNK-induced lung tumorigenesis in A/J mice; assay: NNK-induced lung tumorigenesis in A/J mice; format: in vivo; details: 25 mg/kg nebulized 30 min/day for eight weeks
Procedure: Induction of lung tumorigenesis by intraperitoneal (i.p.) injection on days 1, 3, and 5 with 50 mg/kg of NNK dissolved in saline was followed by nebulization of PB141 (25 mg/kg) or vehicle (saline) and delivery to cage air via a micropump nebulizer. After 8 weeks the lung was examined histologically following H&E staining. (A) Number of lung lesions. (B) Histology showing lung tumor incidence and burden. Data are representative of one of two independent experiments with n=9-11 mice per group.
A/J mice were injected intraperitoneally on days 1, 3, and 5 with 50 mg/kg of 4-methylnitrosamino-1-(3-pyridyl)-1-butanone (NNK; Chemsyn Science Laboratories, Lenexa, Kans.) dissolved in saline. The mice were then held for 8 weeks to allow development of preinvasive lesions: alveolar hyperplasias and adenomas. […]
Mice were euthanized following the eight-week treatment period. […] Lung lesions were quantified by determining the incidence and prevalence of pulmonary pleural surface tumors, counting both the right and left lungs of each mouse. […] Hyperplastic and neoplastic lesions of the lungs were scored according to the International Classification of Rodent Tumors in 6 or 7 sections per lung. Sections were further assessed for morphometry and Ki67 immunohistochemistry.

[3] = test system: bronchial epithelial cells, THP cells, and alveolar macrophages; assay: Cigarette smoke extract exposure of cultured cells; format: cell-based, humans and mice; details: pretreated 1 to 5 μM, then 10% cigarette smoke extract
Procedure: For further in vitro studies, bronchial epithelial cells, THP cells (obtained from American Type Culture Collection), and alveolar macrophages (isolated from bronchial lavage fluid of humans and mice) were cultured and exposed to 10% cigarette smoke extract (CSE) prepared by smoking two cigarettes into RPMI medium according to the Federal Trade Commission (FTC) protocol. In some experiments cells were pretreated with 1 to 5 μM PB141 before the cigarette smoke extract treatment. Pretreatment with PB141 decreased epithelial cell permeability, inflammatory chemokine and cytokine production, and ROS generation.

CC(=O)N[C@@H](CSC(CC(=O)CC(SC[C@H](NC(C)=O)C(=O)O)c1cnccn1)c1cnccn1)C(=O)O (some centres unmarked) [PB141]
DNA-binding activity of Nrf2 (Nrf2): increased both nuclear localization and DNA-binding activity of Nrf2 in a concentration-dependent manner
Nuclear localization of Nrf2 (Western blotting) (Nrf2): increased both nuclear localization and DNA-binding activity of Nrf2 in a concentration-dependent manner
Apoptosis (TUNEL) [1]: induced apoptosis
Cell proliferation (BrdU) [1]: significantly decreased
Inhibition of tumor progression, premalignant lung cancer, and cell proliferation [2]: ~40%
Inflammatory chemokine and cytokine production [3]: decreased
Phagocytic ability of mouse and human alveolar macrophages [3]: improved
ROS generation [3]: decreased
